Source: US12011444B2, “N-substituted indole derivatives as PGE2 receptor modulators” (Idorsia Pharmaceuticals Ltd, priority 2015, dated 2024)

Legend:
EP2 = EP2 (Homo sapiens (Human), UniProt P43116);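 also: antagonism of PGE2-stimulated cAMP accumulation in SF295 human glioblastoma cells with endogenous EP2, cAMP read by HTRF, expressed relative to DMSO control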
EP4 = EP4 (Homo sapiens (Human), UniProt P35408); assay: hEP4 cAMP assay (BT549 breast cancer cells, HTRF cAMP); type: cell-based; conditions: antagonistic activity; mean values where measured multiple times
Chain of EP4 (P35408 whole entry): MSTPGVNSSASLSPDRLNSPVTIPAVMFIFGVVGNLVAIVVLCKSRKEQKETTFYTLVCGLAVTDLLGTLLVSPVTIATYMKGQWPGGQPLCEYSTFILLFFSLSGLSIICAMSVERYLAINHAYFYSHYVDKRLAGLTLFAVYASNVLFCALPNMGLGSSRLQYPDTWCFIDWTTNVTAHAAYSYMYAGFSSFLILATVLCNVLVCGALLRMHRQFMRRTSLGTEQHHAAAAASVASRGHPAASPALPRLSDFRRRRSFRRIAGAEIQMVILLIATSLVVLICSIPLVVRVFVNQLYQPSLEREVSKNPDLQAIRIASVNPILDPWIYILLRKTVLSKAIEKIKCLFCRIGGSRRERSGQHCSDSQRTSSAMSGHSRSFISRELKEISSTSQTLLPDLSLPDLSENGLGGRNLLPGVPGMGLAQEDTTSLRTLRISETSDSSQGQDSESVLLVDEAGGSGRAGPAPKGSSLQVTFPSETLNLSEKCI
Method: Plate is pre-incubated 45 minutes at room temperature. Subsequently, 2.5 microliters of PGE2 (final conc. 6 nM) are transferred into the assay plate. Plate is incubated 30 minutes at room temperature.

Chain of EP2 (P43116 whole entry): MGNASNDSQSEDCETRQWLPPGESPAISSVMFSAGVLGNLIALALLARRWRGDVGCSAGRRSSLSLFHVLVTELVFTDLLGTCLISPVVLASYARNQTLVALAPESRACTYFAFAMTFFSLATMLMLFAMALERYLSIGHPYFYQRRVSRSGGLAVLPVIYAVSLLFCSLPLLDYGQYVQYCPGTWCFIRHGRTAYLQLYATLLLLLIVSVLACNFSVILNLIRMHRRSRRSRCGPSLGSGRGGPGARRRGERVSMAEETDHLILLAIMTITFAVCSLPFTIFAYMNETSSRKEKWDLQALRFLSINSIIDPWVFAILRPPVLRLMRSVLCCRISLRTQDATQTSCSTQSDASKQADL

Row | IC50 (EP2) [nM] | IC50 (EP4) [nM] | SMILES
1 | 242 | 527 | COc1cc(F)c(F)c2c1cc(C)n2CCNc1cc(-c2ccc(-c3cc(C)no3)cc2)ncn1 [compound 717]
2 | 49 | 120 | Cc1cc(F)c(F)c2c1cc(C)n2CCNc1cc(-c2cc(Cl)c(C(=O)O)c(OCC(C)C)c2)ncn1 [compound 694]
3 | 46 | 787 | CCOc1cc(-c2cc(NCCn3c(C)cc4cc(C)cc(F)c43)ncn2)cc(F)c1C(=O)O [compound 436]
4 | 4 | 242 | CCOc1cc(-c2cc(NCCn3c(C)cc4c(F)c(F)cc(F)c43)ncn2)ccc1C(=O)O [compound 449]
5 | 63 | 735 | COc1ccc(F)c2c1cc(C)n2CCNc1cc(-c2ccc(C(=O)O)c3c2ccn3C)ncn1 [compound 470]
6 | 50 | 186 | CCOc1cc(-c2cc(NCCn3c(C)cc4c(OC)cc(F)cc43)nc(C(F)(F)F)n2)sc1C(=O)O [compound 635]
7 | 34 | 468 | Cc1ccc(Cl)c2c1cc(C)n2CCNc1cc(-c2ccc(C(=O)O)c(SC3CCC3)c2)ncn1 [compound 452, 4-{6-[2-(7-Chloro-2,4-dimethyl-indol-1-yl)-ethylamino]-pyrimidin-4-yl}-2-cyclobutylsulfanyl-benzoic acid]
8 | 294 | 706 | Cc1ccc(F)c2c1cc(C)n2CCNc1cc(-c2ccc(-c3cnc(CCC(=O)O)o3)cc2)ncn1 [compound 643]
9 | 163 | 805 | CCS(=O)(=O)Nc1cc(-c2cc(NCCn3c(C)cc4c(C)ccc(F)c43)ncn2)ccc1C(=O)O [compound 602]
10 | 11 | 113 | CCCOc1cc(-c2cc(NCCn3c(C)cc4c(C)ccc(F)c43)ncn2)ccc1C(=O)O [compound 441]
11 | 4 | 3 | CCOc1cc(-c2cc(NCCn3c(C)cc4c(OC)cc(F)c(F)c43)ncn2)sc1C(=O)O [compound 408]
12 | 60 | 750 | CCCc1cc(-c2cc(NCCn3c(C)cc4c(OC)ccc(Cl)c43)ncn2)cc(OCC)c1C(=O)O [compound 633]
13 | 21 | 50 | COc1cc(F)cc2c1cc(C)n2CCNc1cc(-c2ccc(C(=O)O)c(CC(C)C)c2)ncn1 [compound 530]
14 | 4 | 177 | COc1cccc2c1cc(C)n2CCNc1cc(-c2cc(Cl)c(C(=O)O)c(OCC(C)C)c2)ncn1 [compound 691]
15 | 63 | 626 | CCOc1cc(-c2cc(NCCn3c(C)cc4c(OC)cc(F)cc43)nc(C)n2)ccc1C(=O)O [compound 492]
16 | 10 | 73 | COc1ccc(F)c2c1cc(C)n2CCNc1cc(-c2ccc(C(=O)O)c(OC3CCCC3)c2)ncn1 [compound 595, 2-Cyclopentyloxy-4-{6-[2-(7-fluoro-4-methoxy-2-methyl-indol-1-yl)-ethylamino]-pyrimidin-4-yl}-benzoic acid]
17 | 5 | 235 | CCCc1cc(-c2cc(NCCn3c(C)cc4c(OC)cccc43)ncn2)cc(F)c1C(=O)O [compound 445]
18 | 44 | 522 | CCSc1cc(-c2cc(NCCn3c(C)cc4c(OC)c(F)cc(Cl)c43)ncn2)ccc1C(=O)O [compound 542]
19 | 3 | 178 | CCNc1cc(-c2cc(NCCn3c(C)cc4c(OC)cccc43)ncn2)cc(F)c1C(=O)O [compound 398]
20 | 63 | 512 | Cc1ccc(F)c2c1cc(C)n2CCNc1cc(-c2ccc(-c3csc(CC(N)=O)n3)cc2)ncn1 [Example 784, 2-[4-(4-{6-[2-(7-Fluoro-2,4-dimethyl-indol-1-yl)-ethylamino]-pyrimidin-4-yl}-phenyl)-thiazol-2-yl]-acetamide]
21 | 26 | 313 | COc1ccc(F)c2c1cc(C)n2CCNc1cc(-c2ccc(C(=O)O)c(Oc3ccc(F)cc3)c2)ncn1 [compound 654]
22 | 14 | 99 | CCCc1cc(-c2cc(NCCn3c(C)cc4c(C)ccc(F)c43)ncn2)cc(F)c1C(=O)O [compound 416]
23 | 127 | 233 | Cc1ccc(F)c2c1cc(C)n2CCNc1cc(-c2ccc(C(=O)O)c(NS(C)(=O)=O)c2)ncn1 [compound 479]
24 | 990 | 250 | CCOc1cc(-c2cc(NCCn3c(C)cc4c(C(F)(F)F)ccc(F)c43)ncn2)ccc1C(=O)O [compound 543]
25 | 233 | 944 | Cc1ccc(F)c2c1cc(C)n2CCNc1cc(-c2ccc(-c3n[nH]cc3C(=O)O)cc2)ncn1 [compound 456]
26 | 195 | 893 | Cc1nc(CCC(=O)O)oc1-c1ccc(-c2cc(NCCn3c(C)cc4c(C)ccc(F)c43)ncn2)cc1 [compound 648]
27 | 4 | 98 | CCNc1cc(-c2cc(NCCn3c(C)cc4c(OC)ccc(F)c43)ncn2)cc(F)c1C(=O)O [compound 483]

Row | IC50 (EP2) [nM] | IC50 (EP4) [nM] | SMILES
28 | 10 | 159 | CCOc1cc(-c2cc(NCCn3c(C)cc4c(OC)cc(Cl)cc43)ncn2)ccc1C(=O)O [compound 402]
29 | 3 | 245 | COc1cccc2c1cc(C)n2CCNc1cc(-c2ccc(C(=O)O)c(OCC(C)C)c2)ncn1 [compound 485]
30 | 91 | 325 | CCOc1cc(-c2cc(NCCn3c(C)cc4c(OC)c(F)cc(Cl)c43)ncn2)ccc1C(=O)O [compound 486]
31 | 271 | 912 | COc1c(F)cc(Cl)c2c1cc(C)n2CCNc1cc(-c2ccc3[nH][nH]c(=O)c3c2)ncn1 [Example 783, 5-{6-[2-(7-Chloro-5-fluoro-4-methoxy-2-methyl-indol-1-yl)-ethylamino]-pyrimidin-4-yl}-1,2-dihydro-indazol-3-one]
32 | 165 | 225 | Cc1cc(F)c(F)c2c1cc(C)n2CCNc1cc(-c2ccc3c(ccn3C)c2)ncn1 [compound 702]
33 | 11 | 665 | COc1ccc(F)c2c1cc(C)n2CCNc1cc(-c2ccc(C(=O)O)c(N3CCCC3)c2)ncn1 [compound 478, 4-{6-[2-(7-Fluoro-4-methoxy-2-methyl-indol-1-yl)-ethylamino]-pyrimidin-4-yl}-2-pyrrolidin-1-yl-benzoic acid]
34 | 166 | 257 | COc1cc(F)cc2c1cc(C)n2CCNc1cc(-c2ccc(-c3oc(CCC(=O)O)nc3C)cc2)ncn1 [compound 651]
35 | 5 | 56 | CCCc1cc(-c2cc(NCCn3c(C)cc4c(OC)ccc(F)c43)ncn2)cc(Cl)c1C(=O)O [compound 514]
36 | 56 | 113 | Cc1cc(F)c(F)c2c1cc(C)n2CCNc1cc(-c2ccc(-c3noc(=O)[nH]3)cc2)ncn1 [compound 680]
37 | 399 | 355 | Cc1cc(F)c(F)c2c1cc(C)n2CCNc1cc(-c2ccc(-c3cncn3C)cc2)ncn1 [compound 576]
38 | 50 | 161 | COc1cc(F)cc2c1cc(C)n2CCNc1cc(-c2ccc(-c3cncn3C)cc2)ncn1 [compound 582]
39 | 21 | 79 | Cc1ccc(F)c2c1cc(C)n2CCNc1cc(-c2ccc3[nH]ccc3c2)ncn1 [compound 698, [2-(7-Fluoro-2,4-dimethyl-indol-1-yl)-ethyl]-[6-(1H-indol-5-yl)-pyrimidin-4-yl]-amine]
40 | 15 | 201 | CCc1cc(-c2cc(NCCn3c(C)cc4c(OC)ccc(F)c43)ncn2)cc(F)c1C(=O)O [compound 437]
41 | 96 | 448 | COc1cc(-c2cc(NCCn3c(C)cc4c(OC)ccc(Cl)c43)ncn2)cc(C)c1C(=O)O [compound 404]
42 | 62 | 739 | COc1ccc(F)c2c1cc(C)n2CCNc1cc(-c2ccc(-n3nc(C)cc3C)cc2)ncn1 [compound 459]
43 | 75 | 317 | COc1ccc(F)c2c1cc(C)n2CCNc1cc(-c2ccc(C3(C(=O)O)CC3)c(F)c2)ncn1 [compound 564]
44 | 6 | 109 | Cc1cc(F)cc2c1cc(C)n2CCNc1cc(-c2ccc(-c3ncno3)cc2)ncn1 [compound 685, [2-(6-Fluoro-2,4-dimethyl-indol-1-yl)-ethyl]-[6-(4-[1,2,4]oxadiazol-5-yl-phenyl)-pyrimidin-4-yl]-amine]
45 | 68 | 255 | COc1cc(F)c(F)c2c1cc(C)n2CCNc1cc(-c2ccc(C(=O)O)c(OC(F)(F)F)c2)ncn1 [compound 636]
46 | 48 | 501 | CCCc1cc(-c2cc(NCCn3c(C)cc4c(C)ccc(F)c43)ncn2)cc(OCC)c1C(=O)O [compound 624]
47 | 43 | 450 | Cc1ccc(F)c2c1cc(C)n2CCNc1cc(-c2ccc3nn[nH]c3c2)ncn1 [compound 739, [6-(3H-Benzotriazol-5-yl)-pyrimidin-4-yl]-[2-(7-fluoro-2,4-dimethyl-indol-1-yl)-ethyl]-amine]
48 | 773 | 309 | CCCc1cc(-c2cc(NCCn3c(C)cc4c(OC(F)(F)F)ccc(F)c43)ncn2)ccc1C(=O)O [compound 570]
49 | 17 | 759 | CCCc1cc(-c2cc(NCCn3c(C)cc4cc(F)cc(Cl)c43)ncn2)cc(Cl)c1C(=O)O [compound 426]
50 | 325 | 639 | COc1ccc(F)c2c1cc(C)n2CCNc1cc(-c2ccc(C3(C(=O)O)CCCC3)cc2)ncn1 [Example 791, 1-(4-{6-[2-(7-Fluoro-4-methoxy-2-methyl-indol-1-yl)-ethylamino]-pyrimidin-4-yl}-phenyl)-cyclopentanecarboxylic acid]
51 | 17 | 816 | Cc1cc2c(F)c(F)cc(Cl)c2n1CCNc1cc(-c2ccc(C(=O)O)c(SC(C)C)c2)ncn1 [compound 500]
52 | 51 | 390 | Cc1ccc(Cl)c2c1cc(C)n2CCNc1cc(-c2ccc(C(=O)O)c(SC(C)C)c2)ncn1 [compound 410]
53 | 13 | 768 | COc1cccc2c1cc(C)n2CCNc1cc(-c2ccc(C(=O)O)c(Oc3ccc(F)cc3)c2)ncn1 [compound 649]
